Assay results: publication PMC11047580, “Design and Synthesis of Novel Amino and Acetamidoaurones with Antimicrobial Activities” (Antibiotics, 2024)
Converted amounts (≈) assume the structure as drawn.

Legend:
[1] = tested on: Aspergillus fumigatus (DSM819); assay: MIC assay; format: cell-based; conditions: two-fold serial dilutions in liquid media, n = 2–3
[2] = tested on: Enterococcus faecalis (DSM2570); assay: MIC assay; format: cell-based; conditions: two-fold serial dilutions in liquid media, n = 2–3
[3] = tested on: Listeria monocytogenes (DSM20600); assay: MIC assay; format: cell-based; conditions: two-fold serial dilutions in liquid media, n = 2–3
B. subtilis ATCC6633 = assay: MIC assay; format: cell-based, Bacillus subtilis; conditions: Bacillus subtilis, ATCC6633; two-fold serial dilutions in liquid media; n = 2–3
C. albicans DSM10697 = assay: MIC assay; format: cell-based, Candida albicans; conditions: Candida albicans, DSM10697; two-fold serial dilutions in liquid media; n = 2–3
[4] = tested on: Propionibacterium acnes (ATCC6919); assay: MIC assay; format: cell-based; conditions: Cutibacterium acnes, two-fold serial dilutions in liquid media, n = 2–3
[5] = tested on: human cells (A498, BEAS-2B, Caco-2, HaCaT, HepG2, IMR-90); assay: Cytotoxic assay, summary over the six human cell types
[6] = as above; conditions: human, 48 h exposure
[7] = tested on: Clostridium botulinum (DSM1985); assay: microbe, parasite or virus in culture; format: cell-based; conditions: DSM1985, read-out: MIC Clostridium botulinum (DSM1985)
S. aureus ATCC6538P = assay: MIC assay; format: cell-based, Staphylococcus aureus; conditions: Staphylococcus aureus, ATCC6538P; two-fold serial dilutions in liquid media; n = 2–3
[8] = tested on: Mycobacterium abscessus R(CIP 104536^T); assay: MIC assay (REMA); format: cell-based; conditions: REMA microdilution, n = 2–3
[9] = tested on: Helicobacter pylori (ATCC43504); assay: MIC assay; format: cell-based; conditions: two-fold serial dilutions in liquid media, n = 2–3

With `CC(=O)Nc1ccc2c(c1)C(=O)/C(=C/c1cccc(OCc3ccccc3)c1)O2` [Compound 10, (Z)-N-(2-(3-(benzyloxy)benzylidene)-3-oxo-2,3-dihydrobenzofuran-5-yl)acetamide] the MIC ([1]; Aspergillus fumigatus, DSM819) was greater than 100 µM, the “MIC Aspergillus fumigatus (DSM819)” value [1] was “inactive” and the MIC [2] was 50 µM (≈ 19.3 µg/mL). The MIC [3] was 3.12 µM (≈ 1.2 µg/mL), the MIC (B. subtilis ATCC6633) was 3.12 µM (≈ 1.2 µg/mL) and the MIC (C. albicans DSM10697) was 50 µM (≈ 19.3 µg/mL). The MIC [4] was 100 µM (≈ 38.5 µg/mL), the “Highest TI” value ([5]; highest CC50 on human cells divided by MIC on S. aureus) was 37.7 and the “Lowest TI” value ([5]; lowest CC50 on human cells divided by MIC on S. aureus) was 13.5. It also gave a CC50 at 48 h ([6]; Highest CC50, highest of the six human cell types) of 472 µM, a CC50 at 48 h ([6]; Lowest CC50, lowest of the six human cell types) of 169 µM and a CC50 at 48 h ([6]; Mean CC50, mean over the six human cell types) of 322 µM. The MIC [7] was 0.78 µM (≈ 0.301 µg/mL), the MIC (S. aureus ATCC6538P) was 12.5 µM (≈ 4.82 µg/mL) and the MIC ([8]; Mycobacteroides abscessus, CIP104536, R morphotype) was greater than 100 µM. For the same molecule, the “MIC Mycobacterium abscessus R(CIP 104536^T)” value ([8]; R morphotype) was “inactive” and the MIC [9] was 12.5 µM (≈ 4.82 µg/mL).
